Reference: US7385395B2, “Apparatus for preparing a solution of a hyperpolarized noble gas for NMR and MRI analysis” (priority 1996, dated 2008)
Like-named read-outs stand apart in the source and are kept apart here.

Key:
red blood cell (RBC) [1] = conditions: room temperature; Herbst et al. 1989; cited from earlier work
human blood = experiment: 129Xe NMR relaxation and signal of xenon delivered to human blood / red blood cell sample in vitro; assay type: in vitro ADME
Procedure: The portion removed accounted for approximately 30% of the total volume of the blood sample. Following removal of a portion of the plasma, xenon saturated saline (1 mL) was injected into the red blood cell (RBC) sample (1 mL) and the ^129Xe NMR was measured. The NMR spectra were measured on a Bruker AM-400 spectrometer.
By using short rf pulses of small tipping angle, ^129Xe NMR spectra were acquired as a function of time after injection of the xenon/saline mixture into the blood. NMR spectra were measured on a Bruker AM-400 spectrometer.
A solution of hyperpolarized xenon in […] ® was prepared in the same manner as described for the saline solution of hyperpolarized xenon, however, the shaker was charged with […] ® rather than saline. […] The […] ® solution was charged with laser polarized ^129Xe and an aliquot (1 mL) of this solution was added to human blood (1 mL). The spectra were obtained on a Bruker AM-400 spectrometer.
A solution of hyperpolarized xenon in FLUOSOL® was prepared in the same manner as described for the saline solution of hyperpolarized xenon, however, the shaker was charged with FLUOSOL® rather than saline. The FLUOSOL® solution was charged with laser polarized ^129Xe and an aliquot (1 mL) of this solution was added to human blood (1 mL). The spectra were obtained on a Bruker AM-400 spectrometer.

red blood cell (RBC) [2] = system: red blood cell (RBC)
Procedure: NMR spectra were measured on a CMX Infinity spectrometer (Chemamagnetics-Otsuka Electronics, Fort Collins, Colo., U.S.A.) at a magnetic field of 4.3 Tesla.
The xenon exchange rate between the extracellular and intracellular compartments of a RBC/saline/plasma sample was measured by selectively inverting the xenon saline/plasma NMR line and observing the recovery of the two signals. The selective inversion was achieved by an amplitude-modulated Gaussian pulse of 1 ms duration centered at the frequency of the saline/plasma signal. […] A field gradient pulse of 1 ms was applied after the inversion pulse to dephase any components of the transverse magnetization. After the inversion pulse, xenon spectra were taken at fixed time intervals using a small tipping angle (20°). Following the addition of the xenon/saline solution into the RBC sample, a delay of 3 seconds before the application of the inversion pulse insured that the xenon/RBC system was well mixed and equilibrated.
[formula] where τRBC and τp1 are residence time constants for xenon in the RBC and saline/plasma, and 1/τ=1/τRBC+1/τp1. S^oRBC and S^op1 are the initial intensities for the RBC and the plasma/saline components, respectively, immediately after the inversion pulse. The effect of the spin-lattice relaxation is neglected since τ<<T1, making S^oRBC+S^op1 a constant during the exchange process.

[3] = 129Xe spin-lattice relaxation time (T1) of hyperpolarized xenon in solution; assay type: physicochemical
Procedure: The design of the shaker used in the dissolution stage for xenon mixing and delivery is illustrated in FIG. 1. The shaker has a small sidearm which can be isolated from the main volume by a stopcock. The shaker is charged with a sample of either normal abundance or isotopically enriched xenon (80% ^129Xe, EG&G Mound, Miamisburg, Ohio, U.S.A.). Laser polarization is performed prior to admitting the xenon to the shaker. Briefly, approximately 5×10^−4 mol of 80. % isotopically enriched ^129Xe was optically pumped in a 30 cc cylindrical glass pumping cell (diameter≈30 mm). Before optical pumping, the cell was cleaned and coated with SURFASIL® (Pierce Chemical Co., Florence, Mass., U.S.A.); the cell was then evacuated to 10^−6 torr and loaded with one drop of melted rubidium metal in a dry nitrogen environment. Optical pumping was performed with a 1.3 W continuous-wave Ti:sapphire laser (794.7 nm) for 20-30 min, and the temperature of the cell was maintained at 60-80° C. by a temperature-controlled nitrogen gas stream. Typically, the apparatus produces xenon polarization levels in the range of 5-10%.
Following laser polarization, the polarized ^129Xe is frozen at liquid nitrogen temperatures in the sidearm in a magnetic field of approximately 50 mT provided by a small permanent magnet. The magnetic field is used in the freezing stage to prevent the decay of xenon polarization. The xenon is sublimated and then admitted into the solution. The small size of the shaker allows for the accumulation of several atmospheres of xenon pressure which aids in increasing the xenon concentration in the solution. During the dissolution procedure, the vessel is vigorously shaken to help dissolve the xenon gas. The resulting xenon solution is extracted with a syringe through a high-pressure rubber septum. In those examples below wherein a solution NMR study is performed on an in vitro sample, the xenon is immediately injected into an NMR tube which contains the sample to be studied.
Solutions of hyperpolarized ^129Xe in partially deuterated benzene (25% C6D5H, 75% C6D6) were prepared as described above for saline solutions of ^129Xe with the exception that the shaker was charged with the benzene solution rather than saline. Typically, 4×10^−4 mol of enriched ^129Xe (80%, EG&G Mound) were used in one experiment at a pressure of 1 atm. ^129Xe NMR was performed at 51 MHz on a Quest 4300 spectrometer (Nalorac Cryogenics, Martinez, Calif., U.S.A.) with a home built probe and a tipping angle of 3°. ^1H NMR was performed at 185 MHz with a home built probe and a tipping angle of 3°.
Hyperpolarized xenon and mixtures of hyperpolarized xenon and cyclodextrins were prepared generally as discussed above. SPINOE signals of 0.05 M cyclodextrin solutions in deuterated DMSO were measured as described above in Example 8.

[4] = rat, in vivo
Procedure: Male rats weighing 200-250 grams were anesthetized by intramuscular injection of ketamine/xylazine/acepromazine (30/3/0.6 mg/kg). Supplemental intramuscular doses were administered as needed to maintain anesthesia. A venous catheter was placed into a tail vein, and the receiver/transmitter surface coil was placed over the heart and liver (FIG. 18). Acquisitions began at start of the injection. Prior to each experiment the rat was placed in lateral recumbency into the magnet. At the conclusion of each experiment, the catheter was removed and the rat was returned to its cage to recover from anesthesia.
The ^129Xe NMR spectra were obtained on a home-built NMR spectrometer interfaced with a Bruker 2.35 T magnet (xenon frequency: 27.68 MHz, bore diameter: 25 cm). […] For the spectroscopy experiment, spectra were obtained every second (pulse angle: ≈20°).
The rats, anesthesia and apparatus were as described in Example 10, above.

[5] = in saline; STP volume of xenon dissolved in 1 liter of liquid at 1 atm gas pressure; cited from earlier work
[6] = selective inversion experiment, 4.3 Tesla

O [water]
residence time constant in the RBC, τRBC (red blood cell (RBC) [1]): 12 ± 2 ms

[Xe] [xenon]
T1 of the narrow peak (human blood; xenon/FLUOSOL solution 1 mL added to human blood 1 mL, 216 ppm RBC peak): 13 ± 1 s | T1 decay time of the signal at 194 ppm (human blood; xenon/INTRALIPID solution 1 mL added to human blood 1 mL): 16 s | T1 decay time relative to xenon in saline water/blood mixture (human blood; xenon/INTRALIPID solution in blood, 194 ppm signal): approximately 3 fold | equilibrium distribution of the integral of the two peaks (RBC vs saline/plasma) (red blood cell (RBC) [2]): approximately 50% | ratio of integrated intensities of broad (FLUOSOL) and narrow (RBC) peaks (red blood cell (RBC) [2]): approximately 3 | ratio of peak of xenon in INTRALIPID solution to peak of intracellular xenon (red blood cell (RBC) [2]): approximately 6:1 | residence time constant in saline/plasma, τpl (red blood cell (RBC) [2]; [6]): 29.1 ± 2 ms | residence time constant in the RBC, τRBC (red blood cell (RBC) [2]; [6]): 20.4 ± 2 ms | exchange time constant τ (1/τ=1/τRBC+1/τpl) (red blood cell (RBC) [2]; selective inversion of saline/plasma line, 4.3 Tesla): 12.0 ± 1 ms | 129Xe T1 ([3]; 0.1 M p-nitrotoluene in deuterated benzene): > 500 s | 129Xe T1 ([3]; 0.1 M α-cyclodextrin solution in deuterated DMSO): 20 s | T1 of xenon ([3]; H2O/saline (0.9% NaCl), 9.4 T): 66 s | xenon T1 ([3]; in INTRALIPID solution): 40 ± 3 s | observed spin-lattice relaxation time of 129Xe in solution ([3]; normal benzene, combination of gas and solution relaxation times): ~200 s | observed spin-lattice relaxation time of 129Xe in solution ([3]; partially deuterated benzene (25% C6D5H, 75% C6D6)): ~1000 s | T1 of xenon ([3]; saline made with D2O): ≈ 1000 s | time of maximum xenon signal intensity after start of injection [4]: 7 s | Ostwald coefficient [5]: 0.0926
